Tested on: patient with I253V in the TRAP1 ATPase domain
Assay: Case Report 1: clinical response of a patient with I253V in the TRAP1 ATPase domain to supplementation
Type: in vivo, human
Settings: single patient
Method: A person was referred to the inventors because of a failure-to-thrive and hypoglycemia. Additional problems included constipation, temperature instability, tachycardia, delayed gastric emptying (confirmed by Scintiscan), almost-daily pain (headaches, abdominal pain, leg cramps), chronic fatigue (sleeping up to 22 hours a day), anemia (requiring multiple transfusions), repetitive episodes of right arm dyskinesia (2 minutes each, twice a week), and neurodevelopmental issues (gross motor delay, auditory processing problem, and memory defects, but cognitive delay is only 6 months). […] Episodic dyskinesia later resolved with L-arginine supplementation. However, gastrointestinal dysfunction worsened, necessitating a gastrostomy tube, followed by a jejunostomy tube. […] Pertinent results of an extensive work-up include normal brain MR, normal video-EEG, severe free carnitine deficiency (<4 micromolar, normal >19; total carnitine 17), trace elevations on urine organic acids, respiratory alkalosis (hyperventilation), and hypoglycemia (even while receiving adequate jejunal feeds or parental nutrition). […] After finding the I253V in the TRAP1 ATPase domain, antioxidant therapy was intensified, and results are pending.

**Q.** N=C(N)NCCC[C@H](N)C(=O)O [L-arginine] was tested. Which “Episodic dyskinesia (repetitive episodes of right arm dyskinesia)” value did it give?
**A.** Its value is “resolved”.

Reference: patent US9670545B2, “Methods and kits for treating and classifying individuals at risk of or suffering from TRAP1 change-of-function” (Courtagen Life Sciences, Inc., priority 2013, dated 2017)
